We go through 16 compounds from patent publication US12528815B2, “5-amino-8-(4-pyridyl)-[1,2,4]triazolo[4,3-c]pyrimidin-3-one compounds for use against cancer” (Nxera Pharma UK Limited, priority 2020, dated 2026).

Bounds are passed on as bounds.

Assay [1] addresses T1, human adenosine A1 receptor (Homo sapiens, UniProt P30542).
T1 construct: expressed in transfected cells; host or cells: HEK293 cells infected with BacMam (the same paragraph also labels the preparation CHO-hA1)
T1 sequence (P30542 1-326): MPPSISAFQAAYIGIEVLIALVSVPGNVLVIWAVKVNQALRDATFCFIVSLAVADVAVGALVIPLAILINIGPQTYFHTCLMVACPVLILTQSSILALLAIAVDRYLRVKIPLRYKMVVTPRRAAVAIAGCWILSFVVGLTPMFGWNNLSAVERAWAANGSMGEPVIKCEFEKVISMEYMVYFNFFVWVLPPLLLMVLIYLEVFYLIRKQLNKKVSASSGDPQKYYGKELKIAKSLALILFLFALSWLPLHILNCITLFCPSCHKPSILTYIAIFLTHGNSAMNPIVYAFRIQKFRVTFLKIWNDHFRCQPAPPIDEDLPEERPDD
Briefly: Inhibition binding assay, human adenosine A1 receptor membranes, [3H]DPCPX. The note with it: 1 nM [3H]DPCPX, 25° C., 1 h; IC50 converted to Ki with Cheng-Prusoff; read-out: A1 pKi (converted). A digest of the protocol: (§1)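 Membranes from BacMam-infected HEK293 cells (0.2 μg A2A, 1.4 μg A1) incubated 1 h at 25° C with test compound and 1 nM [3H]ZM241385 (A2A; 50 mM Tris-HCl pH 7.4) or [3H]DPCPX (A1; plus 100 mM NaCl, 10 mM MgCl2). Nonspecific: 1 μM CGS15943 or DPCPX. Filtration, scintillation; IC50 converted to Ki via Cheng-Prusoff.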

In assay [2] the target is T2, human adenosine A2A receptor (Homo sapiens, UniProt P29274).
T2 construct: expressed in transfected cells; host or cells: HEK293 cells infected with BacMam
T2 sequence (P29274 whole entry): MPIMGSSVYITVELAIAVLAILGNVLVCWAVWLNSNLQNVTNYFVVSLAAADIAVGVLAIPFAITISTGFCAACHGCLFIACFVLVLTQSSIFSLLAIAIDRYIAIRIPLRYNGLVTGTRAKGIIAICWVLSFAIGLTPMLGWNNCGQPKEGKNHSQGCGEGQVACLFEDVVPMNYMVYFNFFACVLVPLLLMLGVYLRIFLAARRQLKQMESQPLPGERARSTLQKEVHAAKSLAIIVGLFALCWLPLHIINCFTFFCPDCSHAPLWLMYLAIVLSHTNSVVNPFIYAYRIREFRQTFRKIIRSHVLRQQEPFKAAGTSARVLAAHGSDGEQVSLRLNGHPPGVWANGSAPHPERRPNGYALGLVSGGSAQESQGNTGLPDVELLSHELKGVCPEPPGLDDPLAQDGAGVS
Briefly: Inhibition binding assay, human adenosine A2A receptor membranes, [3H]ZM241385. The note with it: 1 nM [3H]ZM241385, HEK293-hA2A membranes, 25° C., 1 h; IC50 converted to Ki with Cheng-Prusoff; read-out: A2A pKi (converted). An outline of the steps: as §1

Assay [3] has as its target T3, human CB-1 cannabinoid receptor (Homo sapiens, UniProt P21554).
T3 construct: expressed in transfected cells; host or cells: CHO cells
As to the kind of experiment: CB1 receptor radioligand binding assay, [3H]CP 55940, transfected CHO cell membranes. The note with it: 0.5 nM [3H]CP 55940, CHO membrane homogenates, 120 min at 37° C. The protocol: Nonspecific binding is determined in the presence of 10 μM WIN 55212-2.
Following incubation, the samples are filtered rapidly under vacuum through glass fiber filters (GF/B, Packard) presoaked with 0.3% PEI and rinsed several times with an ice-cold buffer containing 50 mM Tris-HCl (pH 7.4) and 0.5% BSA using a 96-sample cell harvester (Unifilter, Packard). The filters are dried then counted for radioactivity in a scintillation counter (Topcount, Packard) using a scintillation cocktail (Microscint 0, Packard).
The standard reference compound is CP 55940 which is tested in each experiment at several concentrations to obtain a competition curve from which its IC50 is calculated.

A further assay concerns the target T4, human CB1 receptor (Homo sapiens, UniProt P21554).
T4 construct: expressed in transfected cells; host or cells: CHO cells
Briefly: CB1 receptor antagonism, agonist-induced cAMP modulation (HTRF) in transfected CHO cells. The assay is classed as cell-based. The note with it: read-out: Antag IC50. The protocol: Receptor antagonism: Evaluation of the antagonist activity of compounds at the human CB1 receptor expressed in transfected CHO cells, determined by measuring their effects on agonist-induced cAMP modulation using the HTRF detection method.
Thereafter, the reference agonist CP 55940 and the adenylyl cyclase activator NKH 477 are added at respective final concentrations of 3 nM and 3 μM.
For basal control measurements, CP 55940 is omitted from the wells containing 3 μM AM 281.
Following 20 min incubation at 37° C., the cells are lysed and the fluorescence acceptor (D2-labeled cAMP) and fluorescence donor (anti-cAMP antibody labeled with europium cryptate) are added.
After 60 min at room temperature, the fluorescence transfer is measured at λex=337 nm and λem=620 and 665 nm using a microplate reader (Rubystar, BMG). The cAMP concentration is determined by dividing the signal measured at 665 nm by that measured at 620 nm (ratio).
The standard reference antagonist is AM 281, which is tested in each experiment at several concentrations to generate a concentration-response curve from which its IC50 value is calculated.

T4 sequence (P21554 whole entry): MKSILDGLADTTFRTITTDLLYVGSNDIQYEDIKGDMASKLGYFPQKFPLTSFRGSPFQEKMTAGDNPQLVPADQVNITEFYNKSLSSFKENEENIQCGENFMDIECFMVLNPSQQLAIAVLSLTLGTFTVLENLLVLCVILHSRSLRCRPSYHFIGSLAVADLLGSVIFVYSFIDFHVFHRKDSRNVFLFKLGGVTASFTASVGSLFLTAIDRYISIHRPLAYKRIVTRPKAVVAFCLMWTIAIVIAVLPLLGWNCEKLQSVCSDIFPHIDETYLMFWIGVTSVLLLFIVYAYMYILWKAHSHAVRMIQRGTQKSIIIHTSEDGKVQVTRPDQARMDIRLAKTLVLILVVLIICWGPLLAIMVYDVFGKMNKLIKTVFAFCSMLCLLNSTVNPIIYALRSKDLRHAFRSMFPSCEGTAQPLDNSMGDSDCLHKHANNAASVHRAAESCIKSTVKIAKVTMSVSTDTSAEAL
T3 sequence (P21554 whole entry): as above

Regarding `Cc1cc(-c2c(-c3ccccc3)nc(N)n3c(=O)n(Cc4ccc(F)cn4)nc23)cc(N2CCC2)n1` [Example 1-75, 5-amino-8-[2-(azetidin-1-yl)-6-methyl-4-pyridyl]-2-[(5-fluoro-2-pyridyl)methyl]-7-phenyl-[1,2,4]triazolo[4,3-c]pyrimidin-3-one], the Ki in assay [1] was 126 nM; in assay [2], 3.16 nM; in assay [3], 39100 nM. The IC50 (in general, the concentration at which inhibition is half-maximal) on human CB1 receptor came out at 17900 nM.

On to `COc1cc(-c2c(-c3ccccc3)nc(N)n3c(=O)n(Cc4ccc(F)c(N)n4)nc23)cc(CO)n1` [Example 1-64, 5-amino-2-[(6-amino-5-fluoro-2-pyridyl)methyl]-8-[2-(hydroxymethyl)-6-methoxy-4-pyridyl]-7-phenyl-[1,2,4]triazolo[4,3-c]pyrimidin-3-one], for which the Ki is 158 nM in assay [1], 0.316 nM in assay [2] and 23500 nM in assay [3]. In addition, the IC50 on human CB1 receptor is greater than 100000 nM.

For the compound `Cc1cc(-c2c(-c3ccccc3)nc(N)n3c(=O)n(C(C)c4ccc(F)cc4F)nc23)cc(C)n1` (stereo not shown) [Example 1-11, 5-amino-2-[1-(2,4-difluorophenyl)ethyl]-8-(2,6-dimethyl-4-pyridyl)-7-phenyl-[1,2,4]triazolo[4,3-c]pyrimidin-3-one], the Ki is 398 nM in assay [1], 6.31 nM in assay [2] and 2600 nM in assay [3]. Besides, the IC50 at human CB1 receptor turned out to be 5000 nM.

`Cc1cc(-c2c(-c3ccccc3)nc(N)n3c(=O)n(Cc4ccc(F)cn4)nc23)cc(C)n1` [Example 1-2, 5-amino-8-(2,6-dimethyl-4-pyridyl)-2-[(5-fluoro-2-pyridyl)methyl]-7-phenyl-[1,2,4]triazolo[4,3-c]pyrimidin-3-one]: the Ki in assay [1] is 316 nM; in assay [2] it was 0.794 nM; in assay [3], 20100 nM. In addition, at human CB1 receptor, the IC50 is greater than 4900 nM.

For `COc1cc(-c2c(-c3ccccc3)nc(N)n3c(=O)n(Cc4ccc(Cl)cn4)nc23)cc(CO)n1` [Example 1-65, 5-amino-2-[(5-chloro-2-pyridyl)methyl]-8-[2-(hydroxymethyl)-6-methoxy-4-pyridyl]-7-phenyl-[1,2,4]triazolo[4,3-c]pyrimidin-3-one], the Ki in assay [1] is 794 nM; in assay [2], 0.794 nM; in assay [3], 19900 nM. Moreover, on human CB1 receptor, the IC50 worked out at 9300 nM.

On to `Cc1cc(-c2c(-c3ccccc3)nc(N)n3c(=O)n(CCC(F)(F)F)nc23)cc(C)n1` [Example 2-6, 5-amino-8-(2,6-dimethyl-4-pyridyl)-7-phenyl-2-(3,3,3-trifluoropropyl)-[1,2,4]triazolo[4,3-c]pyrimidin-3-one], for which the Ki was 501 nM in assay [1], 2 nM in assay [2] and 22000 nM in assay [3]. Moreover, on human CB1 receptor, the IC50 was 26500 nM.

Regarding `COc1ncc(F)cc1Cn1nc2c(-c3cc(C)nc(C)c3)c(-c3ccccc3)nc(N)n2c1=O` [Example 1-40, 5-amino-8-(2,6-dimethyl-4-pyridyl)-2-[(5-fluoro-2-methoxy-3-pyridyl)methyl]-7-phenyl-[1,2,4]triazolo[4,3-c]pyrimidin-3-one], the Ki in assay [1] is 39.8 nM; in assay [2], 0.794 nM; in assay [3], 24100 nM. Further, on human CB1 receptor, the IC50 stood at 7400 nM.

`Cc1cc(-c2c(-c3ccccc3)nc(N)n3c(=O)n(CCOC(F)(F)F)nc23)cc(C)n1` [Example 2-30, 5-amino-8-(2,6-dimethyl-4-pyridyl)-7-phenyl-2-[2-(trifluoromethoxy)ethyl]-[1,2,4]triazolo[4,3-c]pyrimidin-3-one]: the Ki in assay [1] was 251 nM; in assay [2], 2.51 nM; in assay [3], 26500 nM. At human CB1 receptor, the half-maximal inhibitory concentration (IC50) came out at 19500 nM.

As for `Cc1cc(-c2c(-c3ccc(F)cn3)nc(N)n3c(=O)n(CCC(F)(F)F)nc23)cc(C)n1` [Example 2-40, 5-amino-8-(2,6-dimethyl-4-pyridyl)-7-(5-fluoro-2-pyridyl)-2-(3,3,3-trifluoropropyl)-[1,2,4]triazolo[4,3-c]pyrimidin-3-one], the Ki in assay [1] was greater than 3160 nM; in assay [2], 39.8 nM; in assay [3] it was 75700 nM. The IC50 at human CB1 receptor was greater than 100000 nM.

For the compound `Cc1cc(-c2c(-c3ccccc3)nc(N)n3c(=O)n(Cc4ccc(F)cn4)nc23)cc(CO)n1` [Example 1-44, 5-amino-2-[(5-fluoro-2-pyridyl)methyl]-8-[2-(hydroxymethyl)-6-methyl-4-pyridyl]-7-phenyl-[1,2,4]triazolo[4,3-c]pyrimidin-3-one], the Ki in assay [1] was 398 nM; in assay [2], 1.58 nM; in assay [3], 40000 nM. On human CB1 receptor, the half-maximal inhibitory concentration (IC50) was determined as 63300 nM.

Turning to `Cc1cc(-c2c(-c3ccccc3)nc(N)n3c(=O)n(CCC(F)(F)F)nc23)cc(CO)n1` [Example 2-51, 5-amino-8-[2-(hydroxymethyl)-6-methyl-4-pyridyl]-7-phenyl-2-(3,3,3-trifluoropropyl)-[1,2,4]triazolo[4,3-c]pyrimidin-3-one], the Ki is 501 nM in assay [1], 1.26 nM in assay [2] and 85000 nM in assay [3]. Moreover, the IC50 on human CB1 receptor was greater than 100000 nM.

As for `Cc1cc(-c2c(-c3ccccc3)nc(N)n3c(=O)n(Cc4ccc(F)cc4)nc23)cc(C)n1` [Example 1-1, 5-amino-8-(2,6-dimethyl-4-pyridyl)-2-[(4-fluorophenyl)methyl]-7-phenyl-[1,2,4]triazolo[4,3-c]pyrimidin-3-one], the results for the Ki in assay [1], in assay [2] and in assay [3] were 31.6 nM, 0.398 nM and 3600 nM, respectively. Moreover, the IC50 on human CB1 receptor amounted to 1700 nM.

In the case of `Cc1cc(-c2c(-c3ccccc3)nc(N)n3c(=O)n(CC4CCOCC4)nc23)cc(C)n1` [Example 2-73, 5-amino-8-(2,6-dimethyl-4-pyridyl)-7-phenyl-2-(tetrahydropyran-4-ylmethyl)-[1,2,4]triazolo[4,3-c]pyrimidin-3-one], the Ki is 1000 nM in assay [1], 2 nM in assay [2] and 52000 nM in assay [3]. For the same compound, at human CB1 receptor, the IC50 is greater than 100000 nM.

On to `Cc1cc(-c2c(-c3ccccc3)nc(N)n3c(=O)n(C4CCCN(C(=O)OC(C)(C)C)C4)nc23)cc(C)n1` (stereo not shown) [Example 2-54, tert-butyl 3-[5-amino-8-(2,6-dimethyl-4-pyridyl)-3-oxo-7-phenyl-[1,2,4]triazolo[4,3-c]pyrimidin-2-yl]piperidine-1-carboxylate], for which the results for the Ki in assay [1], in assay [2] and in assay [3] were 398 nM, 6.31 nM and 8200 nM, respectively. Besides, the IC50 at human CB1 receptor turned out to be 1100 nM.

Regarding `Nc1nc(-c2ccccc2)c(-c2cc(CO)nc(C(F)(F)F)c2)c2nn(CCC(F)(F)F)c(=O)n12` [Example 2-53, 5-amino-8-[2-(hydroxymethyl)-6-(trifluoromethyl)-4-pyridyl]-7-phenyl-2-(3,3,3-trifluoropropyl)-[1,2,4]triazolo[4,3-c]pyrimidin-3-one], the Ki in assay [1] was 501 nM; in assay [2] it was 1.26 nM; in assay [3] it was 37700 nM. Also, the IC50 on human CB1 receptor was greater than 100000 nM.

As for `Cc1cc(-c2c(-c3ccccc3)nc(N)n3c(=O)n(C[C@@H]4COCCN4Cc4ccccc4)nc23)cc(C)n1` [Example 1-101, 5-amino-2-[[(3R)-4-benzylmorpholin-3-yl]methyl]-8-(2,6-dimethyl-4-pyridyl)-7-phenyl-[1,2,4]triazolo[4,3-c]pyrimidin-3-one], the Ki in assay [1] was 10 nM; in assay [2], 0.631 nM; in assay [3], 4000 nM. The IC50 at human CB1 receptor amounted to 2700 nM.
